In US7695728B2, “2-substituted pyridines, processes for their preparation and their use for controlling harmful fungi” (BASF Aktiengesellschaft, priority 2004, dated 2010) one finds melting point data, which are given here for 31 compounds.

Consider `Fc1cccc(Cl)c1-c1c(Cl)cc(-n2cccn2)nc1NC1CCCCC1` [I-43], for which the melting point – broadly, the temperature, or range, at which the solid turns liquid – came to 152 °C. In turn, `CC(C)Nc1cc(-n2cncn2)nc(Cl)c1-c1c(F)cccc1Cl` [I-13, 2-Chloro-3-(2-chloro-6-fluorophenyl)-4-(2-propylamino)-6-([1,2,4]triazol-1-yl)pyridine] returned a melting point of 152 °C. In the case of `CC(C)(C)C1CCC(Nc2nc(-n3cccn3)cc(Cl)c2-c2c(F)cccc2Cl)CC1` (stereo not shown) [I-9] it was 126 °C; in that of `Fc1cccc(Cl)c1-c1c(NC2CCCCC2)cc(-n2cccn2)nc1Cl` [I-44], 112 °C. Under `Fc1cccc(Cl)c1-c1c(NC2CCC(c3ccccc3)CC2)cc(-n2cccn2)nc1Cl` (stereo not shown) [I-4] stands 170 °C. Under `CC(C)Nc1nc(-c2nc3ccccc3s2)cc(Cl)c1-c1c(F)cccc1Cl` [I-51] stands 119 °C; under `CC(C)Nc1cc(-c2nccs2)nc(Cl)c1-c1c(F)cccc1Cl` [I-48], 78 °C; under `Fc1cccc(Cl)c1-c1c(NC2CCCCC2)cc(-c2ccccn2)nc1Cl` [I-36], 83 °C. In turn, `Fc1cccc(Cl)c1-c1c(Cl)cc(-n2cccn2)nc1NC1CC1` [I-23] yielded a melting point of 103 °C. In turn, `CCC(C)Nc1cc(-n2cccn2)nc(Cl)c1-c1c(F)cccc1Cl` (stereo not shown) [I-15] returned a melting point of 108 °C. Under `Fc1cccc(Cl)c1-c1c(N2CCCC2)cc(-n2cccn2)nc1Cl` [I-21] stands 161 °C; under `CC(C)Nc1nc(-c2ccccn2)cc(Cl)c1-c1c(F)cccc1Cl` [I-39], 67 °C. In the case of `Fc1cccc(Cl)c1-c1c(Cl)cc(-n2cccn2)nc1N1CCCC1` [I-20] it was 158 °C; in that of `CC1CCN(c2cc(-c3ncccn3)nc(Cl)c2-c2c(F)cccc2Cl)CC1` [I-54], 129 °C. As to `Cc1cccc(-c2cc(Cl)c(-c3c(F)cccc3Cl)c(NC(C)C)n2)n1` [I-45], the melting point is 131 °C. In the case of `COc1ccc(CCNc2nc(-n3cccn3)cc(Cl)c2-c2c(F)cccc2Cl)cc1OC` [I-57] it was 59 °C. Consider `CC1CCN(c2nc(-n3cccn3)cc(Cl)c2-c2c(F)cccc2Cl)CC1` [I-19], for which the melting point is 120 °C.

`COc1ccc(CCNc2cc(-n3cccn3)nc(Cl)c2-c2c(F)cccc2Cl)cc1OC` [I-58]: the melting point came out at 201 °C. Compound `CCC(C)Nc1nc(-n2cccn2)cc(Cl)c1-c1c(F)cccc1Cl` (stereo not shown) [I-16] gave a melting point of 114 °C. `Fc1cccc(Cl)c1-c1c(Cl)cc(-n2cccn2)nc1NC1CCC(c2ccccc2)CC1` (stereo not shown) [I-5] had a melting point of 78 °C. `CC(C)Nc1nc(-n2cncn2)cc(Cl)c1-c1c(F)cccc1Cl` [I-14, 4-chloro-3-(2-chloro-6-fluorophenyl)-2-(2-propylamino)-6-([1,2,4]triazol-1-yl)pyridine] gave a melting point of 152 °C.

On to `Fc1cccc(Cl)c1-c1c(Cl)cc(-c2ccccn2)nc1NC1CCC(c2ccccc2)CC1` (stereo not shown) [I-24], for which the melting point came to 162 °C. Under `Fc1cccc(Cl)c1-c1c(NC2CC2)cc(-n2cccn2)nc1Cl` [I-22] stands 164 °C; under `CC1CCN(c2cc(-c3ccccn3)nc(Cl)c2-c2c(F)cccc2Cl)CC1` [I-31], 119 °C. In the case of `Cc1nc(-c2cc(NC(C)C)c(-c3c(F)cccc3Cl)c(Cl)n2)sc1C` [I-50] it was 183 °C; in that of `CC(C)Nc1cc(-c2nc3ccccc3s2)nc(Cl)c1-c1c(F)cccc1Cl` [I-52], 154 °C. In the case of `COc1ccc(CCNc2cc(-c3ccccn3)nc(Cl)c2-c2c(F)cccc2Cl)cc1OC` [I-56] it was 78 °C; in that of `Fc1cccc(Cl)c1-c1c(NC2CCC(c3ccccc3)CC2)cc(-c2ccccn2)nc1Cl` (stereo not shown) [I-25], 181 °C. Compound `Fc1cccc(Cl)c1-c1c(Cl)cc(-c2ccccn2)nc1N1CCCC1` [I-40] displayed a melting point of 155 °C. As for `CC(C)(C)C1CCC(Nc2cc(-c3ccccn3)nc(Cl)c2-c2c(F)cccc2Cl)CC1` (stereo not shown) [I-27], the melting point amounted to 163 °C. On to `CC1CCN(c2nc(-c3ncccn3)cc(Cl)c2-c2c(F)cccc2Cl)CC1` [I-53], for which the melting point was found to be 129 °C.
